{
  "source": "patent US20230114357A1",
  "about": "“CONTINUOUS MELT-COATING OF ACTIVE PHARMACEUTICAL INGREDIENTS USING SURFACTANTS FOR DISSOLUTION ENHANCEMENT” (Rutgers,The State University of New Jersey, priority 2020, published 2023)",
  "key": {"[1]": {"assay": "Powder bulk density of ibuprofen / 10% P407 powders", "format": "physicochemical", "details": "ibuprofen combined with 10% Poloxamer 407, not subjected to heat and shear", "experimental": "The screw configurations are shown below, where “C” represents conveying elements and “K” represents kneading elements: For each experiment, mean residence time, powder temperature, and powder bulk density were measured."}, "[2]": {"details": "50 mg powder, 10% cetylpyridinium chloride, 100 rpm, 900 ml deionized water; FIG. 7", "description": "Dissolution testing was performed on the following materials used or prepared herein in order to determine the percentage of carbamazepine released over time: • 10% cetylpyridinium chloride Treated • 10% cetylpyridinium chloride Physical Mix • Carbamazepine, no surfactant\nIn each test, 50 mg of powder was added to a dissolution vessel, and dissolution was conducted using the USP paddle method at 100 rpm in 900 ml of a buffer medium of deionized water."}, "[3]": {"assay": "Dissolution testing of ibuprofen/polyoxyethylene stearate powders (USP paddle method)", "format": "physicochemical", "details": "12 mg powder, Ibuprofen 2, 10% polyoxyethylene stearate, 75 rpm, 900 ml 0.02 M hydrochloric acid pH 1.8; FIG. 6", "description": "(§1) In each test, 12 mg of powder was added to a dissolution vessel, and dissolution was conducted using the USP paddle method at 75 rpm in 900 ml of a buffer medium comprising 0.02 M hydrochloric acid and having a pH of 1.8."}, "physchem": {"assay": "physchem", "details": "pH 1.8, simulated gastric fluid", "description": "(§2) For each test, 12 mg of powder was added to a dissolution vessel, and dissolution was conducted using the USP paddle method at 75 rpm in 900 ml of a buffer medium comprising 0.02 M hydrochloric acid and having a pH of 1.8.\nas §1"}, "[4]": {"assay": "Dissolution testing of ibuprofen/poloxamer powders (USP paddle method)", "format": "physicochemical", "details": "12 mg powder, 75 rpm, 900 ml 0.02 M hydrochloric acid pH 1.8; Ibuprofen 1, 2, 3; FIGS. 2-4", "description": "as §2"}},
  "data": [
    {"smiles": "CC(C)Cc1ccc(C(C)C(=O)O)cc1", "note": "(stereo not shown) [Ibuprofen 3, ibuprofen]", "values": [
      {"measurement": "Powder Bulk Density of 10% P407 Physical Mix", "setting": "[1]", "result": 0.382, "unit": "g/ml"}
    ]},
    {"smiles": "NC(=O)N1c2ccccc2C=Cc2ccccc21", "note": "[Uncoated carbamazepine, carbamazepine]", "values": [
      {"measurement": "dissolution rate (percentage of carbamazepine released over time)", "setting": "[2]", "result": "poorest dissolution rate"}
    ]},
    {"smiles": "CC(C)Cc1ccc(C(C)C(=O)O)cc1", "note": "(stereo not shown) [Uncoated ibuprofen, ibuprofen]", "values": [
      {"measurement": "dissolution rate (percentage of ibuprofen released over time)", "setting": "[3]", "result": "poorest dissolution rate"},
      {"measurement": "solubility", "setting": "physchem", "result": 0.053, "unit": "mg/mL"},
      {"measurement": "dissolution rate (percentage of ibuprofen released over time)", "setting": "[4]", "result": "slowest dissolution rate"}
    ]},
    {"smiles": "CC(C)Cc1ccc(C(C)C(=O)O)cc1", "note": "(stereo not shown) [Ibuprofen 2, ibuprofen]", "values": [
      {"measurement": "Powder Bulk Density of 10% P407 Physical Mix", "setting": "[1]", "result": 0.374, "unit": "g/ml"}
    ]},
    {"smiles": "CC(C)Cc1ccc(C(C)C(=O)O)cc1", "note": "(stereo not shown) [Ibuprofen 1, ibuprofen]", "values": [
      {"measurement": "Powder Bulk Density of 10% P407 Physical Mix", "setting": "[1]", "result": 0.320, "unit": "g/ml"}
    ]}
  ]
}
